Measured values from patent US20140235856A1, “FIBROBLASTS CELLULAR MODEL FOR ASSESSING EFFICACY OF CANCER TREATMENTS BY SHH/PTCH PATHWAY ANTAGONISTS” (CNRS, priority 2011, published 2014).

Test system: SHH/PTCH pathway (GLI1 mRNA) in NBCCS 6 E6/E7 fibroblasts
Assay: Comparative Q-PCR analysis of GLI1 mRNA accumulation after treatment of fibroblast cell lines with purmorphamine
Format: cell-based, human
Conditions: NBCCS 6 E6/E7 fibroblasts compared with CTRL E6/E7 fibroblasts, same experimental conditions; 0.1% DMSO; Q-PCR (FIG. 4)
Protocol: Human primary fibroblasts (named CTRL or NBCCS) were isolated from a healthy non photo-exposed skin biopsy of either a control patient or a patient with caracteristic NBCCS after informed consent (Otto et al., 1999; Valin et al., 2009)
The CTRL and NBCCS6 cell lines were then immortalized by retroviral transduction with pLE6/E7SN resulting in CTRL and NBCCS-E6-E7 (FIG. 1) (Halbert et al., 1991, 1992). Cells were grown at 37° C. in a humified atmosphere containing 5% CO2, DMEM medium, 50 U/ml penicillin, 50 μg/ml streptomycin, 0.125 μg/ml amphotericin B, 2 mM L-Glutamine, 1 mM Sodium pyruvate, 1× non essential amino acids.
Total RNA was extracted with RNeasy® Mini kit according to manufacturer's instructions (Qiagen, Hilden, Germany). Reverse transcription was performed on 1 μg total RNA with Superscript II Reverse Transcriptase (Roche Applied Science, Basel, Switzerland) by using random primers. Q-PCR was carried out using the 7900 HT Fast Real-Time PCR System (Applied Biosystems, Foster City, Calif., USA).
To evaluate small Molecules Modulators of the SHH/PTCH pathway, the Purmorphamine (SMO agonist) was used. Purmorphamine (SMO agonist) was diluted in DMSO at stock concentrations of 50 mM and 10 mM, respectively. To avoid side effects and toxicity, the final concentration of DMSO was fixed to 0.1% DMSO.

## c1ccc2c(Oc3nc(Nc4ccc(N5CCOCC5)cc4)c4ncn(C5CCCCC5)c4n3)cccc2c1 [Purmorphamine]
  GLI1 mRNA accumulation response, NBCCS 6 E6/E7 versus CTRL cells: 7 × times
